Data taken from patent publication US20090054507A1, “CONTROL OF MALIGNANT CELLS BY KINASE INHIBITION” (CLEVELAND STATE UNIVERSITY, priority 2006, published 2009).

Key:
Assay type in all cases: cell-based, human
[1] = tested on: MEG-01 cells; assay: Viability (proliferation) assay, Trypan blue exclusion, MEG-01
[2] = tested on: MEG-01 cells; assay: Annexin V-FITC and PI apoptosis assay, MEG-01
Experimental: Flow cytometric analysis. Cells were analyzed using a FACSCalibur flow cytofluorometer (Becton-Dickinson), with CellQuestPro ver. 3.3 software. The data was further analyzed with FlowJo ver. 6.2, and WinMDI 2.8 software. Proper gating was performed to characterize each cell population (MEG-01 cells and platelets). The population that corresponds to platelets (small, granulated particles), is PI negative because thrombocytes are anucleated cells (only the viable cells were considered) and were distinguished by their capacity to become activated, undergoing shape change in response to agonist and to show phosphatidylserine (PS) exposure when activated. Platelets were further separated from the megakaryocytic cells, by differential centrifugation, considering the size difference between these cell populations (1-5 μm for platelets and 35-150 μm for megakaryocytic cell line MEG-01) and analyzed separately. Voltage and channels settings were adjusted accordingly. Analyzed values were obtained with WinMDI ver. 2.8.
Apoptosis Assays using Flow Cytometry with Annexin V-FITC and propidium iodide (PI). For induction of typical apoptosis, cells were grown in the presence of 1 μM staurosporine (Sigma-Aldrich) for 6 hours. The staurosporine treated cells were stained as follows: control 1 with PI, control 2 with Annexin V-FITC and control 3 both PI and Annexin V-FITC in order to have the brightest controls for compensation and proper collection of the flow cytometry data. Cell necrosis was induced by heat shock (65° C. for 30 minutes). The stained control, both PI and Annexin V-FITC labeled, was then used as the reference in establishing the level of apoptosis induced by the treatments. Data was collected on logarithmic modes, two-colors. Annexin V-FITC corresponds to FL1 H channel, and PI to FL3H or FL2H channels.
Annexin V-FITC and PI apoptosis assay staining protocol. Apoptosis Annexin V-FITC and PI kit from BD Biosciences, CA, USA, was used. 10^5-10^6 cells were stained with 50 μg/ml PI and with 0.5 μg/ml FITC-labeled Annexin V using the staining protocol provided by the supplier. Samples were then analyzed immediately by flow cytometry.

[3] = tested on: MEG-01 cells; assay: Thrombocytopoiesis / proplatelet formation by microscopy
Experimental: Light microscopy (phase contrast) and DAPI fluorescence microscopy. High quality pictures and live imaging were obtained at Cleveland Clinic Imaging Core (Cleveland, Ohio). DAPI staining of cultured MEG-01 cells was performed with fresh cells. For live imaging (observing a single cell for a 24 hour period of time) of the thrombocytopoiesis process, MEG-01 suspension cells were made adherent by using Fibronectin (FN) coated culture dishes. FN was used, at 5 μg/cm^2 and incubated at 37° C. for 1 h, as recommended by the supplier (BD Biosciences, Bedford, Mass., USA).
Scanning electron microscopy (SEM). Cell preparation and pictures were performed at the Microscopy Core Facility (Cleveland Clinic). Cells were grown for 4 days in the presence of 10 μM DMAT and then collected by differential centrifugation. Cells were fixed in glutaraldehyde and then further processed at the Core. The clot was prepared with platelets collected from MEG-01 cultures treated with 10 μM DMAT. Human thrombin 0.5 U/ml for 15 minutes was used to activate them.

Row | Structure (SMILES) | proliferation of MEG-01 cells (Trypan Blue exclusion) ([1]; 5 nM PMA, five days of treatment) | cell number / proliferation rate of MEG-01 cells ([1]; 100 μM TBB, 4 days of treatment) | cytotoxicity (necrosis) in MEG-01 cells [2] | dose and time dependence of induced apoptosis and phenotype change ([2]; 24 to 96 hours) | thrombocytopoiesis [3]
1 | CCCCCCCCCCCCCC(=O)O[C@@H]1[C@@H](C)[C@@]2(O)[C@@H](C=C(CO)C[C@]3(O)C(=O)C(C)=C[C@@H]23)[C@@H]2C(C)(C)[C@]12OC(C)=O [PMA, Phorbol 12-myristate 13-acetate, reference compound] | a decrease in proliferation was observed |  |  |  | 
2 | Brc1c(Br)c(Br)c2[nH]nnc2c1Br [TBB, 4,5,6,7-tetrabromobenzotriazole] |  | maintained a steady number of cells | without being cytotoxic | dose and time dependent | induced thrombocytopoiesis
